Laboratory results: patent US20110059962A1, “TRANSCRIPTION FACTOR MODULATING COMPOUNDS AND METHODS OF USE THEREOF” (priority 2009, published 2011)

Experiments:
LcrF (VirF) = LcrF (VirF) (Yersinia pestis, UniProt P28808); experiment: biochemical; assay type: binding, Y. pseudotuberculosis
ExsA = target: T1, ExsA (Pseudomonas aeruginosa, UniProt P26993); experiment: Inhibition of ExsA-DNA binding, cell-free chemiluminescence assay; design: species or system P. aeruginosa
T1 construct: made in house
T1 sequence (P26993 1-278): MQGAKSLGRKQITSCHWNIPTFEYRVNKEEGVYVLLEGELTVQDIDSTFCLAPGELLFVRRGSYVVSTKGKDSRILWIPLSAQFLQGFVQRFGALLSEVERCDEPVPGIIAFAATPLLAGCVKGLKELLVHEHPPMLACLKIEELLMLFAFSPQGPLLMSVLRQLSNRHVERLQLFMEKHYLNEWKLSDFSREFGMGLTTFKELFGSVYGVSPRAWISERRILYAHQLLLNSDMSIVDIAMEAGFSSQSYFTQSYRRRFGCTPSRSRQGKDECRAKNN

SoxS = target: T2, SoxS (Escherichia coli, UniProt P0A9E2); experiment: Inhibition of SoxS-DNA binding, cell-free chemiluminescence assay; design: species or system E. coli
T2 construct: made in house; host or cells: E. coli
T2 sequence (P0A9E2 1-107): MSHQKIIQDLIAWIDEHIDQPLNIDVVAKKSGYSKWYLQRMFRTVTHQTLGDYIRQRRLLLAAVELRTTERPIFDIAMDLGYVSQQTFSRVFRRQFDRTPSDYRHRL

[1] = test system: Y. pseudotuberculosis cytotoxicity toward J774 cells; experiment: microbe, parasite or virus in culture; settings: Yersinia pseudotuberculosis, J774, read-out: % Cytotoxicity
[2] = test system: P. aeruginosa cytotoxicity toward J774 cells; experiment: Inhibition of P. aeruginosa cytotoxicity toward J774 macrophage-like cells, whole cell LDH release assay (CytoTox 96); design: dose or concentration left out as unconfirmed; settings: Pseudomonas aeruginosa, J774, read-out: % Cytotoxicity
SlyA = target: T3, SlyA (Salmonella typhimurium, UniProt P40676); experiment: Inhibition of SlyA-DNA binding, cell-free chemiluminescence assay (specificity); design: species or system S. typhimurium enterica serovar Typhimurium
T3 construct: made in house; host or cells: E. coli
T3 sequence (P40676 1-144): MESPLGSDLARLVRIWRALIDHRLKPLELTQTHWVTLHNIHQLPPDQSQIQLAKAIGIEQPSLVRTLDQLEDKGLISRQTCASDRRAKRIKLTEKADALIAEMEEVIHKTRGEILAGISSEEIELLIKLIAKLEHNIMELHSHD

[3] = test system: pET-15b supercoiled plasmid DNA; experiment: Assay to detect direct DNA binding (UV fluorescence and agarose gel migration of plasmid DNA); settings: 100 μg/mL; 100 ng pET-15b plasmid, 30 minutes at room temperature

LcrF (VirF), sequence (P28808 whole entry, looked up): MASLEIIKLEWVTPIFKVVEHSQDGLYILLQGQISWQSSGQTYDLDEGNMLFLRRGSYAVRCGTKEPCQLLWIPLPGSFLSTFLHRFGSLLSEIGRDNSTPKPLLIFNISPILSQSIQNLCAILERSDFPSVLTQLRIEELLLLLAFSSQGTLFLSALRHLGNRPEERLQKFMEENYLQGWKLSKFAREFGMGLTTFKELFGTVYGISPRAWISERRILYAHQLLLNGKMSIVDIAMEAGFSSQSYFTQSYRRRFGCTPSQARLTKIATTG

SMILES	IC50 (LcrF (VirF)) [µM]	IC50 (ExsA) [µM]	IC50 (SoxS) [µM]	activity at 50 µg/mL [1] [%]	activity [2] [%]	IC50 (SlyA) [µM]	fluorescence under UV light and DNA migration on agarose gel [3]
CSc1ccc(/C=C/C(=O)Nc2ccc(-c3nc4ccc([N+](=O)[O-])cc4n3O)cc2)cc1 [C]	10 to 25	10 to 25	25 to 50	75 to 99	75 to 99		
CSc1ccc(/C=C/C(=O)Nc2ccc(-c3nc4ccc(C#N)cc4n3O)cc2)cc1 [Compound D, (E)-N-[4-(6-Cyano-1-hydroxy-1H-benzoimidazol-2-yl)-phenyl]-3-(4-methylsulfanyl-phenyl)-acrylamide]	25 to 50	< 10	10 to 25	75 to 99	75 to 99		
CSc1ccc(/C=C/C(=O)Nc2ccc(-c3nc4ccc(C#N)cc4n3O)cc2)cn1 [Compound H, (E)-N-[4-(6-Cyano-1-hydroxy-1H-benzoimidazol-2-yl)-phenyl]-3-(6-methylsulfanyl-pyridin-3-yl)-acrylamide]	25 to 50	< 10	> 50	< 75	< 75		
CC(=O)c1ccc(/C=C/C(=O)Nc2ccc(-c3nc4c(CC(=O)O)cc([N+](=O)[O-])cc4n3O)cc2)cc1 [Compound J, (2-{4-[(E)-3-(4-Acetyl-phenyl)-acryloylamino]-phenyl}-1-hydroxy-6-nitro-1H-benzoimidazol-4-yl)-acetic acid]	< 10	< 10	< 10	< 75	< 75	25 to 50	
N#Cc1ccc2nc(-c3ccc(NC(=O)c4ccc(-n5cccn5)nc4)cc3)n(O)c2c1 [Compound M, N-[4-(6-Cyano-1-hydroxy-1H-benzoimidazol-2-yl)-phenyl]-6-pyrazol-1-yl-nicotinamide]	> 50		> 50	< 75	75 to 99		
N#Cc1ccc2nc(-c3ccc(NC(=O)c4ccc(N5CCOCC5)nc4)cc3)n(O)c2c1 [Compound P, N-[4-(6-Cyano-1-hydroxy-1H-benzoimidazol-2-yl)-phenyl]-6-morpholin-4-yl-nicotinamide]	> 50	< 10	> 50	75 to 99	75 to 99		
CC(=O)c1ccc(/C=C/C(=O)Nc2ccc(-c3nc4c(CC(=O)O)cc([N+](=O)[O-])cc4n3O)cc2)cn1 [Compound V, (2-{4-[(E)-3-(6-Acetyl-pyridin-3-yl)-acryloylamino]-phenyl}-1-hydroxy-6-nitro-1H-benzoimidazol-4-yl)-acetic acid]	< 10	< 10		< 75	< 75	25 to 50	
CSc1ccc(/C=C/C(=O)Nc2ccc(-c3nc4ccc([N+](=O)[O-])cc4n3O)cc2)cn1 [G]	10 to 25	< 10	> 50	< 75	< 75		
CCOc1ccc(-c2nc3ccc(-c4nc5ccc(N6CCN(C)CC6)cc5[nH]4)cc3[nH]2)cc1 [Hoechst 33342]							bright fluorescence under UV light and a faint smear on the gel
CN(C)c1ccc(/C=C/C(=O)Nc2ccc(-c3nc4ccc([N+](=O)[O-])cc4n3O)cc2)cn1 [Z]	> 50	> 50		75 to 99	75 to 99		
